{"source": "paper PMC6481345", "about": "“A novel anti-melanoma SRC-family kinase inhibitor” (Oncotarget, 2019)", "key": {"MITF": {"tested_on": "MITF", "test": "Western blot, MITF levels", "type": "cell-based, human", "details": "melanoma cell lines, SAB298 0.5 µM, UM-164 1 µM, 6 hrs, SCH772984 0.5 µM", "procedure": "We used standard techniques to identify changes in intracellular signaling in response to various treatments. Briefly, melanoma cells were incubated with test compounds, using DMSO as a control, collected by scraping on ice, and lysed in RIPA buffer supplemented with protease and phosphatase inhibitors (MA #78428, and #78425, respectively, Thermo Fisher Scientific, Waltham, MA). Protein concentrations were measured with the BioRad kit (Bio-Rad Laboratories, Hercules, CA), SDS sample buffer was added, extracts were heated at 95°C, sonicated and centrifuged. Cell extracts (20 µg/lane) were fractionated in 3%–8% or 4–12 % tris-acetate gel (NP0006, NuPAGE Life Technologies). We probed with the following primary antibodies: phospho-SRC Tyr416 (CST #2101S), pSRC Tyr527 (#2105), SRC (#2108), pPI3K p85 Y458/p55 Y199 (#4228), LYN (C13F9, #2796), FYN (#4023), phospho-MEK1/2 pSer217/221 (#9121), MEK1/2, phospho-ERK2 pThr202/Tyr204 (#9101), ERK1/2 (#9107), phospho-p38 kinase T180/Y182 (#9216), p38 kinase (#9212), PP2A (#2259), pSHP2 Y542 (#3751), SHP2 (D50F2, #3397), ERBB2 (D8F12 XP(R), #4290), phospho-ERBB2 Y1196 (D66B7 #6942), MYC (D84C12, #5605); GAPDH (14C10, #2118), all from Cell Signaling Technology, Beverly, MA; phospho-PP2A Y307 (AF3989), and MITF (clone D5, #AF5769) from R&D Systems, Inc., Minneapolis, MN; p27KIP1 (#10241) and YES (#610375) from BD Biosciences, San Jose, CA; Cyclin D1 (#04-221) and β-actin (mouse mAb A5316) from MilliporeSigma, St. Louis, MO; PI3K Antibody (p85 alpha, NSJ R30480) from Bioreagents, 9921 Carmel Mountain Rd #352, San Diego, CA. All antibodies were used at the concentrations recommended by the manufacturers."}, "[1]": {"tested_on": "UACC-257 melanoma cell line", "test": "NCI-60 human tumor cell line screen", "type": "cell-based", "procedure": "(§1) We first tested the impact of SAB298 on NCI-60 human tumor cell lines that included eight melanomas (performed by the NCI Development Therapeutics Program).\n(§2) SFK-inhibitors were tested on a panel of NCI-60 cell lines (Supplementary Table 1) and 30 melanoma cell lines and NBMEL, i.e., normal human melanocytes isolated from a newborn foreskin (Table 1 and Supplementary Table 2). The Yale melanoma cohort designated YU originated from tumors excised to improve patient quality of life and used with participants’ informed consent according to Health Insurance Portability and Accountability Act (HIPAA) regulations with Human Investigative Committee protocol.\n(§3) Supplementary Table 1: Cellular activity of SAB298 in a Panel of NCI-60 cancer cell lines*\n(§4) measured protein; and TI is LC50/GI50.\n(§5) Supplementary Table 2: Description of Melanoma Cell lines. See Supplementary_Table_2"}, "[2]": {"tested_on": "MOLT-4 leukemia cell line", "test": "NCI-60 human tumor cell line screen", "type": "cell-based", "procedure": "as §1, §2, §3, §4, §5"}, "[3]": {"tested_on": "HCT-116 colon cancer cell line", "test": "NCI-60 human tumor cell line screen", "type": "cell-based", "procedure": "as §1, §2, §3, §4, §5"}, "[4]": {"tested_on": "MDA-MB-435 melanoma cell line", "test": "NCI-60 human tumor cell line screen", "type": "cell-based", "procedure": "as §1, §2, §3, §4, §5"}, "[5]": {"tested_on": "UACC-62 melanoma cell line", "test": "NCI-60 human tumor cell line screen", "type": "cell-based", "procedure": "as §1, §2, §3, §4, §5"}, "HOP-62 NSCLC cell line": {"tested_on": "HOP-62 NSCLC cell line", "test": "NCI-60 human tumor cell line screen", "type": "cell-based", "procedure": "as §1, §2, §3, §4, §5"}, "M14 melanoma cell line": {"tested_on": "M14 melanoma cell line", "test": "NCI-60 human tumor cell line screen", "type": "cell-based", "procedure": "as §1, §2, §3, §4, §5"}, "SR leukemia cell line": {"tested_on": "SR leukemia cell line", "test": "NCI-60 human tumor cell line screen", "type": "cell-based", "procedure": "as §1, §2, §3, §4, §5"}, "[6]": {"tested_on": "LOX IMVI melanoma cell line", "test": "NCI-60 human tumor cell line screen", "type": "cell-based", "procedure": "as §1, §2, §3, §4, §5"}, "[7]": {"tested_on": "SK-MEL-28 melanoma cell line", "test": "NCI-60 human tumor cell line screen", "type": "cell-based", "procedure": "as §1, §2, §3, §4, §5"}, "[8]": {"tested_on": "SK-MEL-5 melanoma cell line", "test": "NCI-60 human tumor cell line screen", "type": "cell-based", "procedure": "as §1, §2, §3, §4, §5"}, "[9]": {"tested_on": "SK-MEL-2 melanoma cell line", "test": "NCI-60 human tumor cell line screen", "type": "cell-based", "procedure": "as §1, §2, §3, §4, §5"}, "[10]": {"tested_on": "CCRF-CEM leukemia cell line", "test": "NCI-60 human tumor cell line screen", "type": "cell-based", "procedure": "as §1, §2, §3, §4, §5"}, "[11]": {"tested_on": "MCF7 breast cancer cell line", "test": "NCI-60 human tumor cell line screen", "type": "cell-based", "procedure": "as §1, §2, §3, §4, §5"}, "NCI-1460 NSCLC cell line": {"tested_on": "NCI-1460 NSCLC cell line", "test": "NCI-60 human tumor cell line screen", "type": "cell-based", "procedure": "as §1, §2, §3, §4, §5"}, "[12]": {"details": "50% growth inhibition, five dose, average of 2 experiments"}, "[13]": {"details": "cytotoxic concentration, 50% reduction in measured protein, read-out: LC50 (the source's name)"}}, "data": [{"compound": "Nc1ncnc2c1c(-c1ccc(Oc3ccccc3)cc1)nn2C[C@@H]1SSC[C@@H]1O", "note": "[SAB298, (3S, 4S)-3-((4-amino-3-(4-phenoxyphenyl)-1H-pyrazolo[3,4-d]pyrimidin-1-yl)methyl)-1,2-dithiolan-4-ol]", "values": [{"measurement": "MITF levels", "setting": "MITF", "value": "suppressed MITF levels in four out of seven melanoma cell lines"}, {"measurement": "GI50", "setting": "[1]; [12]", "value": 374, "unit": "nM"}, {"measurement": "CC50", "setting": "[1]; [13]", "value": 93500, "unit": "nM"}, {"measurement": "GI50", "setting": "[2]; [12]", "value": 32, "unit": "nM"}, {"measurement": "CC50", "setting": "[2]; [13]", "value": "> 100000", "unit": "nM"}, {"measurement": "GI50", "setting": "[3]; [12]", "value": 134, "unit": "nM"}, {"measurement": "CC50", "setting": "[3]; [13]", "value": 6520, "unit": "nM"}, {"measurement": "GI50", "setting": "[4]; [12]", "value": 103, "unit": "nM"}, {"measurement": "CC50", "setting": "[4]; [13]", "value": 618, "unit": "nM"}, {"measurement": "GI50", "setting": "[5]; [12]", "value": 182, "unit": "nM"}, {"measurement": "CC50", "setting": "[5]; [13]", "value": 872, "unit": "nM"}, {"measurement": "GI50", "setting": "HOP-62 NSCLC cell line; [12]", "value": 227, "unit": "nM"}, {"measurement": "CC50", "setting": "HOP-62 NSCLC cell line; [13]", "value": 23600, "unit": "nM"}, {"measurement": "GI50", "setting": "M14 melanoma cell line; [12]", "value": 21, "unit": "nM"}, {"measurement": "CC50", "setting": "M14 melanoma cell line; [13]", "value": 105, "unit": "nM"}, {"measurement": "GI50", "setting": "SR leukemia cell line; [12]", "value": 38, "unit": "nM"}, {"measurement": "CC50", "setting": "SR leukemia cell line; [13]", "value": "> 100000", "unit": "nM"}, {"measurement": "GI50", "setting": "[6]; [12]", "value": 170, "unit": "nM"}, {"measurement": "CC50", "setting": "[6]; [13]", "value": 4560, "unit": "nM"}, {"measurement": "GI50", "setting": "[7]; [12]", "value": 88, "unit": "nM"}, {"measurement": "CC50", "setting": "[7]; [13]", "value": "> 100000", "unit": "nM"}, {"measurement": "GI50", "setting": "[8]; [12]", "value": 251, "unit": "nM"}, {"measurement": "CC50", "setting": "[8]; [13]", "value": 2680, "unit": "nM"}, {"measurement": "GI50", "setting": "[9]; [12]", "value": 212, "unit": "nM"}, {"measurement": "CC50", "setting": "[9]; [13]", "value": 19400, "unit": "nM"}, {"measurement": "GI50", "setting": "[10]; [12]", "value": 61, "unit": "nM"}, {"measurement": "CC50", "setting": "[10]; [13]", "value": "> 100000", "unit": "nM"}, {"measurement": "GI50", "setting": "[11]; [12]", "value": 138, "unit": "nM"}, {"measurement": "CC50", "setting": "[11]; [13]", "value": 53000, "unit": "nM"}, {"measurement": "GI50", "setting": "NCI-1460 NSCLC cell line; [12]", "value": 29, "unit": "nM"}, {"measurement": "CC50", "setting": "NCI-1460 NSCLC cell line; [13]", "value": 551, "unit": "nM"}]}]}
